Experiments:
healthy male mice [1] = experiment: 30 days toxicity test in mouse; format: in vivo; details: intragastric, 200 mg/kg day
Description: The drug was continually administrated intragastrically for 30 days with dose of 200 mg/kg day.

healthy male mice [2] = experiment: Acute toxicity test in mouse
Source text: Acute toxicity test in mouse: The animals used in this study were healthy male mice. The drug was administrated intragastrically for 7 days once daily.

[3] = tested on: acute hepatocirrhosis hyperammnonemia rat model; experiment: Coma and death caused by acute hepatocirrhosis in rats (in injection); format: in vivo, SD rats; details: Table 9; i.p. 4 days, Cryptotanshinone 10 mg/kg, sodium glutamate 410 mg/kg; tetrachloro-methane peanut oil; 8.5 mmol/kg acetamide i.p. on 4th day
Description: The animals used in this experiment were 40 healthy male SD rats weighing 250-300 g. They were randomly divided into 4 groups, that is, group of normal control, experimental control (acetamide group), sodium glutamate/acetamide group, and Cryptotanshinone/acetamide group. The rats in all those groups except the normal control group were injected intraperitoneally with saline, sodium glutamate injection (with a dose of 410 mg/kg), and saline solution of Cryptotanshinone (containing small amount of surface active agent, with a dose of 10 mg/kg) respectively. 45 min after the injection, the rats in all those groups except the normal control group were injected intraperitoneally with peanut oil containing 0.1% tetrachloro-methane. Above injections continued for 4 days. In the 4th day, 45 min after the tetrachloride peanut oil injection, the rats in each group (including the normal control group) were injected intraperitoneally with 8.5 mmol/kg acetamide solution. The time from acetamide injection to coma (latent period), from coma to awakening (coma time) and death rate in rats was recorded.

hyperammonemia rats [4] = experiment: Blood ammonia reducing experiment (in injection), acetamide-treated rats; format: in vivo, SD rats; details: for Blood ammonia concentration / Reduction rate: i.p. for 4 days, sodium glutamate 410 mg/kg
Description: The animals used in this experiment were 50 healthy male SD rats weighing 250-300 g. They were randomly divided into 5 groups, that is, group of normal control, experimental control (acetamide group), sodium glutamate/acetamide group, Dihydortanshinone I/acetamide group and tanshinone IIA/acetamide group. The rats in all those groups except the normal control group were injected intraperitoneally with saline, sodium glutamate injection (with a dose of 410 mg/kg), saline solution of Dihydortanshinone I (containing small amount of surface active agent, with a dose of 10 mg/kg), saline solution of tanshinone IIA (containing small amount of surface active agent, with a dose of 10 mg/kg) respectively. 45 min after the injection, the rats in all those groups except control group were injected intraperitoneally with 5.5 mmol/kg acetamide. Above injections continued for 4 days. In the 4th day, 30 min after the acetamide injection, blood samples of the rats in each group were collected by eyeball removing method immediately, and processed with the anticoagulant EDTA-Na, then the blood ammonia concentration was determined using conventional method. […] The dose of […] in this example and following examples was settled with the reference of its actual clinical dose. The method for determining the blood ammonia concentration in this example and following examples was enzyme-UV method, the instrument used was HITACHI-7170 automatic analyzer, and the kit used was AMMONIA kit.
(§1) With the same experiment method, 90 min after the acetamide injection at the 4th day, blood samples of the rats in each group were collected by eyeball removing method immediately, and processed with the anticoagulant EDTA-Na, then the blood ammonia concentration was determined.
The animals used in this experiment were 40 healthy male SD rats weighing 250-300 g. They were randomly divided into 4 groups, that is, normal control group, experimental control group (acetamide group), sodium glutamate/acetamide group, and Cryptotanshinone/acetamide group. The rats in all those groups except the normal control group were injected intraperitoneally with saline, sodium glutamate injection (with a dose of 410 mg/kg), and saline solution of Cryptotanshinone (containing small amount of surface active agent, with a dose of 10 mg/kg) respectively. 45 min after the injection, the rats in all those groups except the normal control group were injected intraperitoneally with 5.5 mmol/kg acetamide. Above injections continued for 4 days. In the 4th day, 30 min after the acetamide injection, blood samples of the rats in each group were collected by eyeball removing method immediately, and processed with the anticoagulant EDTA-Na, then the blood ammonia concentration was determined.

[5] = tested on: acute hepatocirrhosis hyperammnonemia rat model; experiment: Coma and death caused by acute hepatocirrhosis in rats (in oral); format: in vivo, SD rats; details: Table 10; Cryptotanshinone oral 100 mg/kg; tetrachloro-methane peanut oil; 8.5 mmol/kg acetamide i.p. on 4th day
Description: The time from acetamide injection to coma (latent period), from coma to awakening (coma time) and death rate in rats was recorded.

hyperammonemia rats [6] = experiment: Blood ammonia reducing experiment (in oral), acetamide-treated rats; format: in vivo, SD rats
Description: In the 4th day, 30 min after the acetamide injection, blood samples of the rats in each group were collected by eyeball removing method immediately, and processed with the anticoagulant EDTA-Na, then the blood ammonia concentration was determined.
as §1

[7] = Table 3, Cryptotanshinone 10 mg/kg, blood 30 min after acetamide on 4th day
[8] = Table 4, Cryptotanshinone 10 mg/kg, blood 90 min after acetamide on 4th day
[9] = Table 7, Cryptotanshinone in oral (intragastric 100 mg/kg), blood 30 min after acetamide on 4th day
[10] = Table 8, Cryptotanshinone in oral (intragastric 100 mg/kg), blood 90 min after acetamide on 4th day
[11] = Table 1, tanshinones 10 mg/kg, blood 30 min after 5.5 mmol/kg acetamide on 4th day
[12] = Table 1, tanshinones 10 mg/kg, blood 30 min after acetamide on 4th day
[13] = Table 2, tanshinones 10 mg/kg, blood 90 min after acetamide on 4th day
[14] = Table 5, tanshinones intragastric 100 mg/kg, acetamide 120 min later, blood 30 min after acetamide on 4th day
[15] = Table 6, tanshinones intragastric 100 mg/kg, blood 90 min after acetamide on 4th day

How did the Death of mice (healthy male mice [1]) turn out when `C[C@H]1COC2=C1C(=O)C(=O)c1c2ccc2c1CCCC2(C)C` [Cryptotanshinone, 1,6,6-trimethyl-1,2,6,7,8,9-hexahydrophenanthrene[1,2-b]furan-10,11-dione] was run?
Its Death of mice is “no death of mice manifested”.

What about the “Growth and development, hematopoietic function, biochemical index” value (healthy male mice [1]) of the same compound?
Its value is “no apparent abnormal change or toxic reaction”.

And the “Pathology of major organs (anatomical and tissue microscopy inspection)” value (healthy male mice [1])?
Its value is “No pathology change of major organs”.

What about the LD50 (healthy male mice [2]; mice, intragastric, once daily for 7 days) of the same compound?
The LD50 was greater than 1500 mg/kg.

What about the “Toxic symptom or death” value (healthy male mice [2]; mice, intragastric, once daily for 7 days, dose up to 1.5 g/kg) of the same compound?
Its value is “no toxic symptom or death”.

And the “Toxicity, overall conclusion” value (healthy male mice [2]; summary statement)?
Its value is “safe to use as drug in normal dosage”.

What about the “Coma time (from coma to awakening)” value [3] of the same compound?
The value was 65 min.

And the “Latent period (time from acetamide injection to coma)” value (from here on “Latent period”) [3]?
Its value is 12 min.

What about the Mortality [3] of the same compound?
The Mortality was 20%.

What about the Blood ammonia concentration (hyperammonemia rats [4]; [7]) of the same compound?
Its Blood ammonia concentration is 420 µmol/L.

What about the Reduction rate (hyperammonemia rats [4]; [7]) of the same compound?
Its Reduction rate is 60%.

And the Blood ammonia concentration (hyperammonemia rats [4]; [8])?
The Blood ammonia concentration was 110 µmol/L.

What about the Reduction rate (hyperammonemia rats [4]; [8]) of the same compound?
The Reduction rate was 100%.

What about the “Coma time (from coma to awakening)” value [5] of the same compound?
Its value is 75 min.

What about the “Latent period” value [5] of the same compound?
Its value is 12 min.

And the Mortality [5]?
Its Mortality is 20%.

And the Blood ammonia concentration (hyperammonemia rats [6]; [9])?
The Blood ammonia concentration was 470 µmol/L.

What about the Reduction rate (hyperammonemia rats [6]; [9]) of the same compound?
Its Reduction rate is 54%.

And the Blood ammonia concentration (hyperammonemia rats [6]; [10])?
The Blood ammonia concentration was 120 µmol/L.

And the Reduction rate (hyperammonemia rats [6]; [10])?
The Reduction rate was 97%.

Which results are given for `Cc1cccc2c3c(ccc12)C1=C(C(=O)C3=O)C(C)CO1` (centres unmarked) [Dihydortanshinone I, 1,6-dimethyl-1,2-dihydrophenanthrene[1,2-b]furan-10,11-dione]?
Blood ammonia concentration (hyperammonemia rats [4]; [11]): 490 µmol/L; Reduction rate (hyperammonemia rats [4]; [12]): 51%; Blood ammonia concentration (hyperammonemia rats [4]; [13]): 125 µmol/L; Reduction rate (hyperammonemia rats [4]; [13]): 96%; Blood ammonia concentration (hyperammonemia rats [6]; [14]): 550 µmol/L; Reduction rate (hyperammonemia rats [6]; [14]): 44%; Blood ammonia concentration (hyperammonemia rats [6]; [15]): 135 µmol/L; Reduction rate (hyperammonemia rats [6]; [15]): 89%

For `N[C@@H](CCC(=O)[O-])C(=O)[O-].[Na+].[Na+]` [Sodium Glutamate], which “Coma time (from coma to awakening)” value [3] is on record?
The value was 75 min.

What about the “Latent period” value [3] of the same compound?
Its value is 11 min.

And the Mortality [3]?
The Mortality was 50%.

What about the Blood ammonia concentration (hyperammonemia rats [4]; [11]) of the same compound?
The Blood ammonia concentration was 480 µmol/L.

And the Reduction rate (hyperammonemia rats [4]; [12])?
The Reduction rate was 53%.

What about the Blood ammonia concentration (hyperammonemia rats [4]; [13]) of the same compound?
Its Blood ammonia concentration is 120 µmol/L.

And the Reduction rate (hyperammonemia rats [4]; [13])?
The Reduction rate was 97%.

And the Blood ammonia concentration (hyperammonemia rats [4]; [7])?
Its Blood ammonia concentration is 480 µmol/L.

And the Reduction rate (hyperammonemia rats [4]; [7])?
Its Reduction rate is 53%.

What about the Blood ammonia concentration (hyperammonemia rats [4]; [8]) of the same compound?
Its Blood ammonia concentration is 110 µmol/L.

And the Reduction rate (hyperammonemia rats [4]; [8])?
Its Reduction rate is 100%.

And the “Coma time (from coma to awakening)” value [5]?
The value was 90 min.

What about the “Latent period” value [5] of the same compound?
The value was 9 min.

What about the Mortality [5] of the same compound?
Its Mortality is 50%.

And the Blood ammonia concentration (hyperammonemia rats [6]; [14])?
The Blood ammonia concentration was 510 µmol/L.

What about the Reduction rate (hyperammonemia rats [6]; [14]) of the same compound?
The Reduction rate was 49%.

What about the Blood ammonia concentration (hyperammonemia rats [6]; [15]) of the same compound?
The Blood ammonia concentration was 130 µmol/L.

What about the Reduction rate (hyperammonemia rats [6]; [15]) of the same compound?
The Reduction rate was 91%.

What about the Blood ammonia concentration (hyperammonemia rats [6]; [9]) of the same compound?
Its Blood ammonia concentration is 510 µmol/L.

And the Reduction rate (hyperammonemia rats [6]; [9])?
The Reduction rate was 49%.

And the Blood ammonia concentration (hyperammonemia rats [6]; [10])?
Its Blood ammonia concentration is 130 µmol/L.

And the Reduction rate (hyperammonemia rats [6]; [10])?
The Reduction rate was 91%.

For `Cc1coc2c1C(=O)C(=O)c1c-2ccc2c1CCCC2(C)C` [Tanshinone IIA], which Blood ammonia concentration (hyperammonemia rats [4]; [11]) is on record?
Its Blood ammonia concentration is 850 µmol/L.

What about the Reduction rate (hyperammonemia rats [4]; [12]) of the same compound?
The Reduction rate was less than 5%.

What about the Blood ammonia concentration (hyperammonemia rats [4]; [13]) of the same compound?
Its Blood ammonia concentration is 265 µmol/L.

What about the Reduction rate (hyperammonemia rats [4]; [13]) of the same compound?
The Reduction rate was less than 12%.

And the “Function to reduce the blood ammonia concentration” value (hyperammonemia rats [4]; hyperammonemia animal model, summary statement)?
Its value is “have no such function”.

And the Blood ammonia concentration (hyperammonemia rats [6]; [14])?
Its Blood ammonia concentration is 865 µmol/L.

What about the Reduction rate (hyperammonemia rats [6]; [14]) of the same compound?
The Reduction rate was less than 4%.

What about the Blood ammonia concentration (hyperammonemia rats [6]; [15]) of the same compound?
Its Blood ammonia concentration is 270 µmol/L.

What about the Reduction rate (hyperammonemia rats [6]; [15]) of the same compound?
The Reduction rate was less than 10%.

Source: patent US20040024056A1, “Dihydrofuran cyclic tanshinones used in treating hyperammonemia and hepatic encephalopathy” (priority 2001, published 2004)
